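Five compound concentrations were applied to cells in 96-well plates for 48 hours; endpoints were derived by simple linear interpolation of the resulting dose-response curve. GI50 marks 50% less growth.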 The source made the active and inactive calls. Cut-off read from the data, not from the text of the source: active = GI50 up to about 1.1 µM and inactive = higher.

Some test systems named below: CAKI-1; K562; HOP-62; SW-620; A549; NCI-H522; SK-OV-3; RXF 393; UACC-62; A498; LOX IMVI; COLO 205; SF-268; M14; OVCAR-5; HT-29; SNB-75; ACHN.
What all share (assay): NCI tumour cell line growth inhibition, 48 h

Turning to `O=C(O[C@H]1[C@@H]2C=CO[C@@H](OC3OC(CO)C(O)C(O)C3O)[C@@H]2[C@@]2(CO)O[C@@H]12)c1ccc(O)c(O)c1` (stereo not given in full), the GI50 in the test on CAKI-1, in the test on K562, in the test with HOP-62, in the test on SW-620, with A549 and in the test with NCI-H522 was > 100 µM (inactive) in each case. Also, the GI50 in the test on SK-OV-3, in the test on RXF 393, in the test on UACC-62, in the test on A498, in the test with LOX IMVI and with COLO 205 was > 100 µM (inactive) throughout. For the same compound, the GI50 with SF-268, with M14, in the test on OVCAR-5, in the test on HT-29, in the test on SNB-75 and with ACHN was > 100 µM (inactive) each time.
As for `Cc1nc(C(N)=S)sc1C(=O)/C=C/c1c(O)ccc2ccccc12`, the GI50 with CAKI-1 is > 87.5 µM (inactive); in the test on K562, 25.9 µM (inactive); with HOP-62, > 100 µM (inactive); in the test on SW-620 it was 39.4 µM (inactive); in the test on A549, > 100 µM (inactive); with NCI-H522, 26.9 µM (inactive). For the same compound, the GI50 in the test on SK-OV-3 is > 100 µM (inactive); with RXF 393, 31.8 µM (inactive); with UACC-62, 29.6 µM (inactive); with A498, > 100 µM (inactive); in the test with LOX IMVI, 26 µM (inactive); in the test with COLO 205, > 100 µM (inactive). The GI50 in the test on SF-268 was 28.5 µM (inactive); in the test on M14 it was > 100 µM (inactive); in the test with OVCAR-5 it was > 100 µM (inactive); in the test on HT-29, > 100 µM (inactive); in the test on SNB-75, 53.7 µM (inactive); in the test on ACHN, > 100 µM (inactive).
Consider `COc1cc(CNC2c3cc4c(cc3C(c3cc(OC)c(OC)c(OC)c3)[C@H]3C(=O)OCC23)OCO4)cc(OC)c1OC` (stereo not given in full), for which the GI50 is 0.298 µM (active) in the test with K562; 0.231 µM (active) in the test on HOP-62; 0.416 µM (active) with SW-620; 0.417 µM (active) in the test with A549; 0.0661 µM (active) in the test with NCI-H522; 0.385 µM (active) in the test on SK-OV-3. For the same compound, the GI50 in the test with RXF 393 is 0.308 µM (active); in the test with UACC-62, 0.156 µM (active); in the test on A498, 0.254 µM (active); in the test with LOX IMVI, 0.288 µM (active); with COLO 205 it was 0.18 µM (active); with SF-268, 0.372 µM (active). Also, the GI50 with M14 is 0.447 µM (active); in the test with OVCAR-5, > 100 µM (inactive); in the test with HT-29 it was 0.335 µM (active); with SNB-75, 0.535 µM (active); in the test with ACHN, 0.42 µM (active).
For `CC[As](CC)SCC1OC(OC(C)=O)C(OC(C)=O)C(OC(C)=O)C1OC(C)=O` (stereo not given), the GI50 with CAKI-1 is 2.84 µM (inactive); in the test on K562, 4.38 µM (inactive); in the test with HOP-62, 20.8 µM (inactive); in the test on SW-620 it was 4.74 µM (inactive); in the test on A549 it was 21 µM (inactive); in the test on NCI-H522, 1.75 µM (inactive). The GI50 with SK-OV-3 was 15.8 µM (inactive); with RXF 393 it was 3.26 µM (inactive); in the test with UACC-62, 13.9 µM (inactive); in the test on A498 it was 20.6 µM (inactive); with LOX IMVI, 15.2 µM (inactive); with COLO 205 it was 2.42 µM (inactive). For the same compound, the GI50 was 11.6 µM (inactive) with SF-268; 12.3 µM (inactive) in the test on M14; 18.3 µM (inactive) in the test with OVCAR-5; 21.5 µM (inactive) with HT-29; 25.5 µM (inactive) in the test on SNB-75; 17.4 µM (inactive) with ACHN.
For the compound `CN(Cc1ccccc1)c1nc(=[N+](C)C)ss1`, the GI50 in the test on CAKI-1 is > 100 µM (inactive); in the test with K562, 23.4 µM (inactive); in the test on HOP-62, > 100 µM (inactive); in the test with SW-620 it was > 100 µM (inactive); with A549, 33.2 µM (inactive); in the test on NCI-H522 it was 41.1 µM (inactive). The GI50 in the test on SK-OV-3 was 96.8 µM (inactive); in the test on RXF 393 it was > 100 µM (inactive); in the test with UACC-62 it was 24.6 µM (inactive); with A498, 99.5 µM (inactive); with LOX IMVI, 36.8 µM (inactive); with SF-268, 49.1 µM (inactive). The GI50 is > 100 µM (inactive) in the test on M14; > 100 µM (inactive) in the test with OVCAR-5; 74.8 µM (inactive) in the test with HT-29; > 100 µM (inactive) in the test with SNB-75; > 100 µM (inactive) in the test with ACHN.
With `O=C1CCCC/C1=C/C=C/c1ccccc1`, the GI50 was > 100 µM (inactive) with CAKI-1; 32.4 µM (inactive) with K562; 41.6 µM (inactive) in the test with SW-620; 52.5 µM (inactive) in the test with A549; 30.7 µM (inactive) in the test on NCI-H522; 55.7 µM (inactive) in the test with SK-OV-3. Also, the GI50 is 47.4 µM (inactive) with RXF 393; 52.1 µM (inactive) in the test with UACC-62; > 100 µM (inactive) in the test on A498; 48.9 µM (inactive) in the test with LOX IMVI; > 100 µM (inactive) in the test with COLO 205; 59.7 µM (inactive) in the test on SF-268. Besides, the GI50 with M14 is 58.9 µM (inactive); in the test with OVCAR-5 it was > 100 µM (inactive); in the test with HT-29 it was 49.3 µM (inactive); with SNB-75, 32.7 µM (inactive); in the test with ACHN, 71.4 µM (inactive).
In the case of `COc1cc(C=O)c(-c2cc(OC)c(OC)cc2C=O)cc1OC`, the GI50 is > 100 µM (inactive) with CAKI-1; 36.7 µM (inactive) in the test with K562; > 100 µM (inactive) in the test with HOP-62; 78 µM (inactive) in the test on SW-620; > 100 µM (inactive) in the test on A549; > 100 µM (inactive) in the test with NCI-H522. For the same compound, the GI50 with SK-OV-3 is > 100 µM (inactive); in the test on RXF 393, 24.5 µM (inactive); with UACC-62 it was > 100 µM (inactive); in the test with A498 it was > 100 µM (inactive); in the test on LOX IMVI, 13.7 µM (inactive); with COLO 205, > 100 µM (inactive). Moreover, the GI50 was 46.7 µM (inactive) with SF-268; > 100 µM (inactive) in the test on M14; > 100 µM (inactive) in the test with OVCAR-5; 76.2 µM (inactive) with HT-29; > 100 µM (inactive) with SNB-75; > 100 µM (inactive) in the test with ACHN.
For `CC(=O)NNc1nc(C)c(C(=O)/C=C/c2ccc(N(C)C)cc2)s1`, the GI50 in the test with CAKI-1, in the test with K562, in the test on HOP-62, in the test on SW-620, with A549 and with NCI-H522 was > 100 µM (inactive) each time. In addition, the GI50 in the test with SK-OV-3 was > 100 µM (inactive); with RXF 393 it was 88.9 µM (inactive); in the test on UACC-62 it was > 100 µM (inactive); in the test on A498 it was > 100 µM (inactive); in the test on LOX IMVI it was > 100 µM (inactive); in the test with COLO 205 it was > 100 µM (inactive). Also, the GI50 with SF-268 was > 100 µM (inactive); in the test on OVCAR-5, > 100 µM (inactive); with HT-29, > 100 µM (inactive); with SNB-75, 79.8 µM (inactive); in the test with ACHN, > 100 µM (inactive).
Turning to `O/N=C1/C(=C/c2ccc(Br)cc2)CCCC1C(NO)c1ccc(Br)cc1` (stereo not given), the GI50 in the test with K562 was > 100 µM (inactive); in the test on SW-620 it was 20.4 µM (inactive); in the test on A549, 15.4 µM (inactive); with NCI-H522 it was 16 µM (inactive); with SK-OV-3, 24.7 µM (inactive); in the test on RXF 393 it was 15.6 µM (inactive). For the same compound, the GI50 in the test with UACC-62 is 13.9 µM (inactive); in the test on A498 it was 10.3 µM (inactive); in the test with LOX IMVI, 20.4 µM (inactive); in the test on COLO 205, 15.3 µM (inactive); in the test on SF-268 it was 13.6 µM (inactive); in the test with M14, 15.4 µM (inactive). Also, the GI50 is 11.4 µM (inactive) in the test on OVCAR-5, 18.3 µM (inactive) with HT-29, 19.1 µM (inactive) with SNB-75 and 17 µM (inactive) in the test with ACHN.
As for `CCCCCCCCCCNCCSSCc1ccc(Cl)cc1`, the GI50 was 2.18 µM (inactive) with CAKI-1; 1.24 µM (inactive) in the test with K562; 1.6 µM (inactive) in the test on SW-620; 1.85 µM (inactive) in the test with A549; 1.61 µM (inactive) in the test on NCI-H522; 3.84 µM (inactive) in the test with SK-OV-3. The GI50 in the test with RXF 393 was 3.3 µM (inactive); with UACC-62, 0.407 µM (active); with A498, 10.2 µM (inactive); with LOX IMVI it was 1.92 µM (inactive); with COLO 205, 2.39 µM (inactive); in the test with SF-268, 0.631 µM (active). Further, the GI50 is 0.233 µM (active) in the test with M14; 1.91 µM (inactive) in the test on OVCAR-5; 1.77 µM (inactive) with HT-29; 5.86 µM (inactive) in the test with SNB-75; 4.68 µM (inactive) in the test with ACHN.
In the case of `CC1=C(/C(C)=N/NC(=O)c2ccccc2O)C(C)C(/C(C)=N/NC(=O)c2ccccc2O)=C(C)N1`, the GI50 is 28.1 µM (inactive) with CAKI-1; 16.6 µM (inactive) in the test on K562; 25.1 µM (inactive) in the test on HOP-62; 33.6 µM (inactive) in the test on SW-620; 21.5 µM (inactive) with A549; 17.5 µM (inactive) with NCI-H522. The GI50 with SK-OV-3 is 38.1 µM (inactive); in the test with RXF 393, 4.73 µM (inactive); with UACC-62, 6.5 µM (inactive); with A498, 27.8 µM (inactive); with LOX IMVI, 18.3 µM (inactive); in the test on SF-268, 25.6 µM (inactive). The GI50 in the test with M14 is 30.2 µM (inactive); with OVCAR-5 it was 24.2 µM (inactive); with HT-29 it was 42.3 µM (inactive); with SNB-75, 11.6 µM (inactive); in the test with ACHN, 16.3 µM (inactive).

The values are drawn from ChEMBL document CHEMBL1201862, “PubChem BioAssay data set” (2004).
